# Measured values as given in paper PMC5218480 (PLoS ONE, 2017).
# Tested on: MV-4-11 cells
# Assay: Gene expression microarray analysis (Affymetrix PrimeView) and GSEA
# Type: cell-based, human
# Design: RFU PODN (11730768_x_at) / Fold change /veh PODN (11730768_x_at) / RFU LINC00158 (11744669_a_at) / Fold change /veh LINC00158 (11744669_a_at) / RFU DUSP10 (11751237_a_at) / Fold change /veh DUSP10 (11751237_a_at) / RFU ID3 (11757404_x_at) / Fold change /veh ID3 (11757404_x_at) / RFU PLEKHG5 (11737974_s_at) / Fold change /veh PLEKHG5 (11737974_s_at) / RFU LRRC4B (11730491_at) / Fold change /veh LRRC4B (11730491_at) / RFU GIMAP4 (11747438_a_at) / Fold change /veh GIMAP4 (11747438_a_at) / RFU KRT8 (11758183_x_at) / Fold change /veh KRT8 (11758183_x_at) / RFU CNN1 (11734310_a_at) / Fold change /veh CNN1 (11734310_a_at) / RFU VPS37D (11726825_at) / Fold change /veh VPS37D (11726825_at) / RFU C10orf10 (11716522_x_at) / Fold change /veh C10orf10 (11716522_x_at) / RFU KIR2DL2 /// KIR2DL4 /// KIR2DL5A /// KIR2DL5B /// KIR2DS1 /// KIR2DS2 /// KIR2DS3 /// KIR2DS4 /// KIR3DL3 /// KIR3DL3 /// KIR3DS1 (11738374_at) / Fold change /veh KIR2DL2 /// KIR2DL4 /// KIR2DL5A /// KIR2DL5B /// KIR2DS1 /// KIR2DS2 /// KIR2DS3 /// KIR2DS4 /// KIR3DL3 /// KIR3DL3 /// KIR3DS1 (11738374_at) / RFU C1QL1 (11718748_at) / Fold change /veh C1QL1 (11718748_at) / RFU TMPRSS4 (11747572_a_at) / Fold change /veh TMPRSS4 (11747572_a_at) / RFU HAMP (11756126_x_at) / Fold change /veh HAMP (11756126_x_at) / RFU RNFT2 (11725882_a_at) / Fold change /veh RNFT2 (11725882_a_at) / RFU NR4A2 (11747474_a_at) / Fold change /veh NR4A2 (11747474_a_at) / RFU ABCC12 (11746883_a_at) / Fold change /veh ABCC12 (11746883_a_at) / RFU TMEM136 (11760407_x_at) / Fold change /veh TMEM136 (11760407_x_at) / RFU CLDN22 /// WWC2 (11732394_at) / Fold change /veh CLDN22 /// WWC2 (11732394_at) / RFU HLA-DPB1 (11760878_x_at) / Fold change /veh HLA-DPB1 (11760878_x_at) / RFU SPINT1 (11716480_a_at) / Fold change /veh SPINT1 (11716480_a_at) / RFU GAP43 (11754022_s_at) / Fold change /veh GAP43 (11754022_s_at) / RFU A4GNT (11735810_at) / Fold change /veh A4GNT (11735810_at) / RFU PRB3 (11715151_x_at) / Fold change /veh PRB3 (11715151_x_at) / RFU TUBB4B (11761932_at) / Fold change /veh TUBB4B (11761932_at) / RFU CAPN14 (11732068_a_at) / Fold change /veh CAPN14 (11732068_a_at) / RFU TMCC2 (11721928_a_at) / Fold change /veh TMCC2 (11721928_a_at) / RFU IRGQ (11745062_a_at) / Fold change /veh IRGQ (11745062_a_at) / RFU FAM174B (11720279_a_at) / Fold change /veh FAM174B (11720279_a_at) / RFU TMPRSS4 (11748680_a_at) / Fold change /veh TMPRSS4 (11748680_a_at) / RFU FAM212B (11763350_a_at) / Fold change /veh FAM212B (11763350_a_at) / RFU PLEKHG5 (11743358_a_at) / Fold change /veh PLEKHG5 (11743358_a_at) / RFU ZSCAN30 (11745921_a_at) / Fold change /veh ZSCAN30 (11745921_a_at) / RFU CMKLR1 (11741424_a_at) / Fold change /veh CMKLR1 (11741424_a_at) / RFU LOC101060620 /// MAPK8IP1 (11723275_at) / Fold change /veh LOC101060620 /// MAPK8IP1 (11723275_at) / RFU SPTSSB (11747773_x_at) / Fold change /veh SPTSSB (11747773_x_at) / RFU PRSS12 (11739890_at) / Fold change /veh PRSS12 (11739890_at) / RFU BIN1 (11741810_x_at) / Fold change /veh BIN1 (11741810_x_at) / RFU WNT11 (11732464_a_at) / Fold change /veh WNT11 (11732464_a_at) / RFU C10orf10 (11716521_a_at) / Fold change /veh C10orf10 (11716521_a_at) / RFU C5orf56 (11738089_at) / Fold change /veh C5orf56 (11738089_at) / RFU CYB561 (11721691_x_at) / Fold change /veh CYB561 (11721691_x_at) / RFU ANKRD19P (11752326_a_at) / Fold change /veh ANKRD19P (11752326_a_at) / RFU OR2T12 /// OR2T33 /// OR2T8 (11738714_s_at) / Fold change /veh OR2T12 /// OR2T33 /// OR2T8 (11738714_s_at) / RFU VCAN (11748164_a_at) / Fold change /veh VCAN (11748164_a_at) / RFU JSRP1 (11732532_at) / Fold change /veh JSRP1 (11732532_at) / RFU KRTAP10-11 (11738290_x_at) / Fold change /veh KRTAP10-11 (11738290_x_at) / RFU MYO3A (11730013_a_at) / Fold change /veh MYO3A (11730013_a_at) / RFU EBF3 (11725865_a_at) / Fold change /veh EBF3 (11725865_a_at) / RFU CAMK2N1 (11719241_x_at) / Fold change /veh CAMK2N1 (11719241_x_at) / RFU C5orf56 (11738088_a_at) / Fold change /veh C5orf56 (11738088_a_at) / RFU OLFML3 (11715873_a_at) / Fold change /veh OLFML3 (11715873_a_at) / RFU LOC100653217 /// NTM (11731650_a_at) / Fold change /veh LOC100653217 /// NTM (11731650_a_at) / RFU MAPK11 (11762145_a_at) / Fold change /veh MAPK11 (11762145_a_at) / RFU FIZ1 (11724087_x_at) / Fold change /veh FIZ1 (11724087_x_at) / RFU OASL (11726364_x_at) / Fold change /veh OASL (11726364_x_at) / RFU SOX15 (11748057_x_at) / Fold change /veh SOX15 (11748057_x_at) / RFU CD79A (11719716_a_at) / Fold change /veh CD79A (11719716_a_at) / RFU HIST1H1D (11736915_at) / Fold change /veh HIST1H1D (11736915_at) / RFU CASKIN2 (11723855_a_at) / Fold change /veh CASKIN2 (11723855_a_at) / RFU LOC730098 (11760151_x_at) / Fold change /veh LOC730098 (11760151_x_at) / RFU OR4N2 (11742367_at) / Fold change /veh OR4N2 (11742367_at) / RFU PRRT2 (11749266_a_at) / Fold change /veh PRRT2 (11749266_a_at) / RFU SNX32 (11753110_a_at) / Fold change /veh SNX32 (11753110_a_at) / RFU CDHR5 (11726645_a_at) / Fold change /veh CDHR5 (11726645_a_at) / RFU RCAN1 (11760418_a_at) / Fold change /veh RCAN1 (11760418_a_at) / RFU FAM167A (11723789_a_at) / Fold change /veh FAM167A (11723789_a_at) / RFU FAM26E (11764081_at) / Fold change /veh FAM26E (11764081_at) / RFU ISYNA1 (11749810_s_at) / Fold change /veh ISYNA1 (11749810_s_at) / RFU ACY1 (11761880_at) / Fold change /veh ACY1 (11761880_at) / RFU 11764098_at / Fold change /veh 11764098_at / RFU SAMD14 (11745864_x_at) / Fold change /veh SAMD14 (11745864_x_at) / RFU NPB (11741838_a_at) / Fold change /veh NPB (11741838_a_at) / RFU TMPRSS6 (11731388_a_at) / Fold change /veh TMPRSS6 (11731388_a_at) / RFU KRTAP10-2 (11738614_at) / Fold change /veh KRTAP10-2 (11738614_at) / RFU ARHGAP8 /// PRR5-ARHGAP8 (11727945_x_at) / Fold change /veh ARHGAP8 /// PRR5-ARHGAP8 (11727945_x_at) / RFU KRTAP5-7 /// NADSYN1 (11734609_at) / Fold change /veh KRTAP5-7 /// NADSYN1 (11734609_at) / RFU RASL12 (11751679_a_at) / Fold change /veh RASL12 (11751679_a_at) / RFU CDKN2B (11736163_a_at) / Fold change /veh CDKN2B (11736163_a_at) / RFU PRF1 (11729649_at) / Fold change /veh PRF1 (11729649_at) / RFU, ZNF638 /// ZNF638-IT1 / Fold change vs veh, ZNF638 /// ZNF638-IT1 / RFU, PANK3 / Fold change vs veh, PANK3 / RFU, SH3YL1 / Fold change vs veh, SH3YL1 / RFU, ZEB2 / Fold change vs veh, ZEB2 / RFU, NRIP1 / Fold change vs veh, NRIP1 / RFU, PTTG1IP / Fold change vs veh, PTTG1IP / RFU, CAPN2 / Fold change vs veh, CAPN2 / RFU, MED14 / Fold change vs veh, MED14 / RFU, SNORA58 / Fold change vs veh, SNORA58 / RFU, C1orf63 / Fold change vs veh, C1orf63 / RFU, LRRFIP1 / Fold change vs veh, LRRFIP1 / RFU, NDUFAF7 / Fold change vs veh, NDUFAF7 / RFU, SLC12A2 / Fold change vs veh, SLC12A2 / RFU, IBTK / Fold change vs veh, IBTK / RFU, ESF1 / Fold change vs veh, ESF1 / Fold change vs veh, TMEM50B / RFU, TAOK1 / Fold change vs veh, TAOK1 / RFU, ACBD3 / Fold change vs veh, ACBD3 / RFU, TMA16 / Fold change vs veh, TMA16 / RFU, RWDD3 / Fold change vs veh, RWDD3 / RFU, BCAT1 / Fold change vs veh, BCAT1 / RFU, EDEM3 / Fold change vs veh, EDEM3 / RFU, TMEM33 / Fold change vs veh, TMEM33 / RFU, WDR75 / Fold change vs veh, WDR75 / RFU, AHCTF1 / Fold change vs veh, AHCTF1 / RFU, TFRC / Fold change vs veh, TFRC / RFU, ZDHHC17 / Fold change vs veh, ZDHHC17 / RFU, NOM1 / Fold change vs veh, NOM1 / RFU, ARL8B / Fold change vs veh, ARL8B / RFU, ZBTB11 / Fold change vs veh, ZBTB11 / RFU, TAMM41 / Fold change vs veh, TAMM41 / RFU, KIAA1704 /// LOC100996395 / Fold change vs veh, KIAA1704 /// LOC100996395 / RFU, ING1 / Fold change vs veh, ING1 / RFU, TRMT61B / Fold change vs veh, TRMT61B / RFU, FUBP3 / Fold change vs veh, FUBP3 / RFU, TP53 / Fold change vs veh, TP53 / RFU, TNKS2 / Fold change vs veh, TNKS2 / RFU, ZFP14 / Fold change vs veh, ZFP14 / RFU, ACTR2 / Fold change vs veh, ACTR2 / RFU, PPP3R1 / Fold change vs veh, PPP3R1 / RFU, PIK3R1 / Fold change vs veh, PIK3R1 / RFU, HNRNPA1 / Fold change vs veh, HNRNPA1 / RFU, RNF170 / Fold change vs veh, RNF170 / RFU, ZNF28 / Fold change vs veh, ZNF28 / RFU, RNGTT / Fold change vs veh, RNGTT / RFU, OGT / Fold change vs veh, OGT / RFU, BRD1 / Fold change vs veh, BRD1 / RFU, MARS / Fold change vs veh, MARS / RFU, ZNF655 / Fold change vs veh, ZNF655 / RFU, FAHD1 / Fold change vs veh, FAHD1 / RFU, BDP1 / Fold change vs veh, BDP1 / RFU, LRRCC1 / Fold change vs veh, LRRCC1 / RFU, ARID1A / Fold change vs veh, ARID1A / RFU, ZNF146 / Fold change vs veh, ZNF146 / RFU, ZNF330 / Fold change vs veh, ZNF330 / RFU, GPN3 / Fold change vs veh, GPN3 / RFU, C9orf123 / Fold change vs veh, C9orf123 / RFU, N4BP2L2 / Fold change vs veh, N4BP2L2 / RFU, ARFIP1 / Fold change vs veh, ARFIP1 / RFU, FAM179B / Fold change vs veh, FAM179B / RFU, BCL10 / Fold change vs veh, BCL10 / RFU, UHRF1BP1L / Fold change vs veh, UHRF1BP1L / RFU, BET1 / Fold change vs veh, BET1 / RFU, CNOT2 / Fold change vs veh, CNOT2 / RFU, ZNF268 / Fold change vs veh, ZNF268 / Fold change vs veh, ZNF507 / RFU, DGCR2 / Fold change vs veh, DGCR2 / RFU, WDSUB1 / Fold change vs veh, WDSUB1 / Fold change vs veh, HSP90B1 /// MIR3652 / RFU, ADSS / Fold change vs veh, ADSS / RFU, GK / Fold change vs veh, GK / RFU, ZNF148 / Fold change vs veh, ZNF148 / RFU, TAF9 / Fold change vs veh, TAF9 / RFU, SLC1A5 / Fold change vs veh, SLC1A5 / RFU, SLMO2 / Fold change vs veh, SLMO2 / RFU, ABCC4 / Fold change vs veh, ABCC4 / RFU, LOC101060439 /// RAP1B / Fold change vs veh, LOC101060439 /// RAP1B / RFU, RFX7 / Fold change vs veh, RFX7 / RFU, GTPBP10 / Fold change vs veh, GTPBP10 / RFU, CNEP1R1 / Fold change vs veh, CNEP1R1 / RFU, BIVM-ERCC5 /// ERCC5 / Fold change vs veh, BIVM-ERCC5 /// ERCC5 / RFU, ILF3 / Fold change vs veh, ILF3 / RFU 11762660_at / Fold change /veh 11762660_at / RFU VCAN (11757783_s_at) / Fold change /veh VCAN (11757783_s_at) / RFU DDX43 (11728927_at) / Fold change /veh DDX43 (11728927_at) / RFU KRT8 (11758188_x_at) / Fold change /veh KRT8 (11758188_x_at) / RFU NKD1 (11759106_at) / Fold change /veh NKD1 (11759106_at) / RFU SRD5A1 (11742802_a_at) / Fold change /veh SRD5A1 (11742802_a_at) / RFU TPSAB1 /// TPSB2 (11721975_s_at) / Fold change /veh TPSAB1 /// TPSB2 (11721975_s_at) / RFU GSTM3 (11746129_a_at) / Fold change /veh GSTM3 (11746129_a_at) / RFU IL23R (11737362_x_at) / Fold change /veh IL23R (11737362_x_at) / RFU TMEM51 (11727254_a_at) / Fold change /veh TMEM51 (11727254_a_at) / RFU PIWIL2 (11732686_x_at) / Fold change /veh PIWIL2 (11732686_x_at) / RFU ORM1 (11744905_x_at) / Fold change /veh ORM1 (11744905_x_at) / RFU CCDC152 (11743942_at) / Fold change /veh CCDC152 (11743942_at) / RFU ECM1 (11717891_a_at) / Fold change /veh ECM1 (11717891_a_at) / RFU IL23R (11748794_a_at) / Fold change /veh IL23R (11748794_a_at) / RFU TNFAIP8L3 (11732012_x_at) / Fold change /veh TNFAIP8L3 (11732012_x_at) / RFU MBOAT4 (11741988_at) / Fold change /veh MBOAT4 (11741988_at) / RFU 11764193_at / Fold change /veh 11764193_at / RFU TMEM53 (11763286_at) / Fold change /veh TMEM53 (11763286_at) / RFU MAGEB2 (11727129_at) / Fold change /veh MAGEB2 (11727129_at) / RFU TMEM200A (11744735_a_at) / Fold change /veh TMEM200A (11744735_a_at) / RFU CCDC152 (11751479_a_at) / Fold change /veh CCDC152 (11751479_a_at) / RFU FAM211A (11726209_a_at) / Fold change /veh FAM211A (11726209_a_at) / RFU RGS16 (11746705_a_at) / Fold change /veh RGS16 (11746705_a_at) / RFU VCAN (11755009_s_at) / Fold change /veh VCAN (11755009_s_at) / RFU RHOB (11743442_s_at) / Fold change /veh RHOB (11743442_s_at) / RFU RGS16 (11720943_a_at) / Fold change /veh RGS16 (11720943_a_at) / RFU RGS16 (11720944_at) / Fold change /veh RGS16 (11720944_at) / RFU, VPS4B / Fold change vs veh, VPS4B / RFU, CREB1 / Fold change vs veh, CREB1 / RFU, DNAJC13 / Fold change vs veh, DNAJC13 / RFU, GNAQ / Fold change vs veh, GNAQ / RFU, CDK5R1 / Fold change vs veh, CDK5R1 / RFU, ZRANB3 / Fold change vs veh, ZRANB3 / RFU, CUL4A / Fold change vs veh, CUL4A / RFU, CCNY / Fold change vs veh, CCNY / RFU, UFL1 / Fold change vs veh, UFL1 / RFU, COG3 / Fold change vs veh, COG3 / RFU, DIAPH2 / Fold change vs veh, DIAPH2 / RFU, SKA2 / Fold change vs veh, SKA2 / RFU, AFF3 / Fold change vs veh, AFF3 / RFU, LMF1 / Fold change vs veh, LMF1 / RFU, IPO11 / Fold change vs veh, IPO11 / RFU, DFFB / Fold change vs veh, DFFB / RFU, FOXP1 / Fold change vs veh, FOXP1 / RFU, CARD8 / Fold change vs veh, CARD8 / RFU, STRN3 / Fold change vs veh, STRN3 / RFU, ADK / Fold change vs veh, ADK / RFU, RASSF2 / Fold change vs veh, RASSF2 / RFU, WIPF1 / Fold change vs veh, WIPF1 / RFU, LARP1B / Fold change vs veh, LARP1B / RFU, RASA1 / Fold change vs veh, RASA1 / RFU, RB1 / Fold change vs veh, RB1 / RFU, PPFIA1 / Fold change vs veh, PPFIA1 / RFU, MAT2A / Fold change vs veh, MAT2A / RFU, CCT5 / Fold change vs veh, CCT5 / RFU, WDR92 / Fold change vs veh, WDR92 / RFU, CUX1 / Fold change vs veh, CUX1 / RFU, TTC7A / Fold change vs veh, TTC7A / RFU, TMEM135 / Fold change vs veh, TMEM135 / RFU, DEPTOR / Fold change vs veh, DEPTOR / RFU, CPM / Fold change vs veh, CPM / RFU, DNAJB6 / Fold change vs veh, DNAJB6 / RFU, CACNA2D3 / Fold change vs veh, CACNA2D3 / RFU, DTX4 / Fold change vs veh, DTX4 / RFU, TFCP2 / Fold change vs veh, TFCP2 / RFU, GMCL1 /// GMCL1P1 / Fold change vs veh, GMCL1 /// GMCL1P1 / RFU, AEBP2 / Fold change vs veh, AEBP2 / RFU, SNHG1 /// SNORD22 /// SNORD25 /// SNORD26 /// SNORD27 /// SNORD28 /// SNORD29 /// SNORD31 / Fold change vs veh, SNHG1 /// SNORD22 /// SNORD25 /// SNORD26 /// SNORD27 /// SNORD28 /// SNORD29 /// SNORD31 / Fold change (Aza/veh), C12orf56 (ProbeSet 11735607_a_at) / Fold change (ACY-1035/veh), C12orf56 (ProbeSet 11735607_a_at) / Fold change (Aza/veh), FGFR1OP (ProbeSet 11751329_s_at) / Fold change (ACY-1035/veh), FGFR1OP (ProbeSet 11751329_s_at) / Fold change (Aza/veh), VPS36 (ProbeSet 11739960_a_at) / Fold change (ACY-1035/veh), VPS36 (ProbeSet 11739960_a_at) / RFU SYPL1 (11715823_x_at) / Fold change /veh SYPL1 (11715823_x_at) / RFU IGFBP7 (11715501_s_at) / Fold change /veh IGFBP7 (11715501_s_at) / RFU REEP3 (11722064_at) / Fold change /veh REEP3 (11722064_at) / RFU IGLL1 (11728026_x_at) / Fold change /veh IGLL1 (11728026_x_at): dose or concentration left out as unconfirmed
# Conditions: ProbeSet 11757113_a_at; LIST D
smiles,measurement,value
Nc1ccc(-c2cccs2)cc1NC(=O)c1ccc2c(c1)cc(C1CC1)n2CCN1CCOCC1 [ACY-1035],"RFU, SNHG1 /// SNORD22 /// SNORD25 /// SNORD26 /// SNORD27 /// SNORD28 /// SNORD29 /// SNORD31",319.01 RFU
